Values quoted from earlier work, collected in patent publication US20230355730A1, “METHODS FOR TREATING AUTOIMMUNE DISEASE USING BIOCOMPATIBLE BIOABSORBABLE NANOSPHERES” (UTI Limited Partnership, priority 2010, published 2023).

Tested on: IGRP206-214-reactive CD8^+ T-cells
Settings: cited from earlier work; for T1D protection: chronic treatment, moderate doses (NRP-A7), high doses (NRP-I4, NRP-V7, IGRP206-214)

Sequence: VYLKTNVFL (SEQ ID NO:4) [IGRP206-214, natural ligand]
- T1D protection: only afforded marginal protection

Sequence: KYNKANVFL (SEQ ID NO:8) [NRP-V7]
- T1D protection: only afforded marginal protection

Sequence: KYNKANAFL (SEQ ID NO:6) [NRP-A7]
- T1D protection: afforded T1D protection
- avidity maturation of the IGRP206-214-reactive CD8^+ subset (pre-diabetic NOD mice, soluble peptide): blunted avidity maturation

Sequence: KYNIANVFL (SEQ ID NO:7) [NRP-I4]
- T1D protection: afforded T1D protection
